Experimental data from patent US5939419A, “2-benzyl-polycyclic guanine derivatives and process for preparing them” (Schering-Plough Corporation, priority 1995, dated 1999).
pIC50: −log10 of the molar value.

Experiments:
[1] = tested on: spontaneously hypertensive rats (SHR); assay: Antihypertensive activity in conscious spontaneously hypertensive rats (SHR), oral; assay type: in vivo, rat
Text: The present compounds are useful in inhibiting the phosphodiesterase enzymes. These phosphodiesterase enzymes are known to hydrolyze cGMP in smooth muscle. High levels of cGMP are associated with the relaxation of vascular smooth muscle, with a consequent subsequent reduction in blood pressure. Thus, it is believed that by inhibiting these phosphodiesterase enzymes, cGMP levels in muscle will be either maintained or increased, with a subsequent reduction in blood pressure. In vivo antihypertensive activity is determined orally in spontaneously hypertensive rats (SHR).
Antihypertensive activity in rats
The ability of the compounds of the present invention to lower blood pressure can be assessed in vivo in conscious spontaneously hypertensive rats (SHR). SHR males are purchased from Taconic Farms, Germantown, N.Y. and are approximately 16-18 weeks old when anesthetized with ether. The caudal (ventral tail) artery is cannulated with polyethylene tubing (PE50) and blood pressure and heart rate are recorded as described by Baum, T. et. al, J. Cardiovasc. Pharmacol. Vol 5, pp. 655-667, (1983). Rats are placed into plastic cylindrical cages where they rapidly recover consciousness. Blood pressure and heart rate are allowed to stabilize for approximately 90 minutes prior to compound administration. […] Activity is expressed as the fall in mean blood pressure (MBP) in millimeters of mercury (mm Hg). […]

[2] = biological target: T1, calcium-calmodulin dependent phosphodiesterase (CaM-PDE) (Bos taurus, UniProt P14100); assay: Phosphodiesterase inhibition in vitro, calcium-calmodulin dependent phosphodiesterase (CaM-PDE), 3H-cGMP substrate; assay type: biochemical; conditions: CaM-PDE from bovine aorta; 1 μM 3H-cGMP; pH 7.5; 25 minutes at room temperature
T1 construct: from tissue; host or cells: bovine aorta

pIC50 [2] | Structure (SMILES) | SHR: fall in MBP at 25 mpk [1] [mmHg]
6.70 | CN1C(=O)c2[nH]c(Cc3ccccc3)nc2N2C1=N[C@@H]1CCC[C@@H]12 (relative stereo) [Compound A, reference compound] | 6
4.48 | CN1C(=O)c2[nH]cnc2N2C1=N[C@@H]1CCC[C@@H]12 (relative stereo) [Compound B, cis-5,6a,7,8,9,9a-hexahydro-5-methylcyclopenta-[4,5]imidazo[2,1-b]-purin-4(3H)-one, reference compound] | 32
> 7.00 | CN1C(=O)c2[nH]c(Cc3ccc(F)cc3)nc2N2C1=N[C@@H]1CCC[C@@H]12 [Example 1A] | –
6.70 | COc1ccc(Cc2nc3c([nH]2)C(=O)N(C)C2=N[C@@H]4CCC[C@@H]4N23)cc1 [Example 1B] | –
6.22 | CN1C(=O)c2[nH]c(Cc3ccc(C(F)(F)F)cc3)nc2N2C1=N[C@@H]1CCC[C@@H]12 [Example 1C] | –
7.00 | CN1C(=O)c2[nH]c(Cc3ccccc3)nc2N2C1=N[C@@H]1CCC[C@@H]12 [Example 1] | –
6.15 | COc1cc(Cc2nc3c([nH]2)C(=O)N(C)C2=N[C@@H]4CCC[C@@H]4N23)cc(OC)c1OC [Example 2A] | –
6.40 | COc1ccc(Cc2nc3c([nH]2)C(=O)N(C)C2=N[C@@H]4CCC[C@@H]4N23)cc1OC [Example 2B] | –
> 7.00 | CN1C(=O)c2[nH]c(Cc3ccc(N(C)C)cc3)nc2N2C1=N[C@@H]1CCC[C@@H]12 [Example 2] | –
7.00 | Cc1ccc(Cc2nc3c([nH]2)C(=O)N(C)C2=N[C@@H]4CCC[C@@H]4N23)cc1 [Example 3A] | –
6.22 | CN1C(=O)c2[nH]c(Cc3ccc(OC(F)(F)F)cc3)nc2N2C1=N[C@@H]1CCC[C@@H]12 [Example 3B] | –
6.70 | CN1C(=O)c2[nH]c(Cc3ccc(N4CCOCC4)cc3)nc2N2C1=N[C@@H]1CCC[C@@H]12 [Example 3C] | –
6.05 | COc1cccc(Cc2nc3c([nH]2)C(=O)N(C)C2=N[C@@H]4CCC[C@@H]4N23)c1 [Example 3E] | –
6.10 | CN1C(=O)c2[nH]c(Cc3cccc(C(F)(F)F)c3)nc2N2C1=N[C@@H]1CCC[C@@H]12 [Example 3F] | –
6.52 | CN1C(=O)c2[nH]c(Cc3ccc4c(c3)OCO4)nc2N2C1=N[C@@H]1CCC[C@@H]12 [Example 3G] | –
> 7.00 | CN1C(=O)c2[nH]c(Cc3ccc(-c4ccccc4)cc3)nc2N2C1=N[C@@H]1CCC[C@@H]12 [Example 3H] | –
> 7.00 | CN1C(=O)c2[nH]c(Cc3ccc(O)cc3)nc2N2C1=N[C@@H]1CCC[C@@H]12 [Example 3] | –
6.32 | CN1C(=O)c2[nH]c(Cc3ccc4ccccc4c3)nc2N2C1=N[C@@H]1CCC[C@@H]12 [Example 6] | –
6.19 | CN1C(=O)c2[nH]c(Cc3ccc(Cl)cc3)nc2N2C1=N[C@@H]1CCC[C@@H]12 [Example 7] | –
7.00 | CN1C(=O)c2[nH]c(Cc3ccccc3)nc2N2CC3(CCCC3)N=C12 [Example 8] | –
6.52 | CN1C(=O)c2[nH]c(Cc3ccccc3)nc2N2CC(C)(C)N=C12 [Example 9] | –
7.00 | CC(C)[C@@H]1CN2C(=N1)N(C)C(=O)c1[nH]c(Cc3ccccc3)nc12 [Example 10] | –
6.70 | CN1C(=O)c2[nH]c(Cc3ccc4c(c3)OCO4)nc2N2C1=NC13CCCC1CCC23 (centres unmarked) [Example 11] | –
5.52 | CN1C(=O)c2[nH]c(Cc3ccc(C(F)(F)F)cc3)nc2N2C1=N[C@@H]1COC[C@@H]12 [Example 12] | –
